The experiment concerns the target T1, aryl hydrocarbon receptor (AhR) (Mus musculus, UniProt P30561).
T1 construct: purified mouse AhR:ARNT complex; with ARNT
Briefly: fluorescence quenching assay (intrinsic ligand fluorescence) with purified AhR:ARNT. The format is binding.

One may read the Kd as the concentration at which binding is half-saturated. A higher Kd goes with a looser complex.

T1 sequence (P30561 10-848): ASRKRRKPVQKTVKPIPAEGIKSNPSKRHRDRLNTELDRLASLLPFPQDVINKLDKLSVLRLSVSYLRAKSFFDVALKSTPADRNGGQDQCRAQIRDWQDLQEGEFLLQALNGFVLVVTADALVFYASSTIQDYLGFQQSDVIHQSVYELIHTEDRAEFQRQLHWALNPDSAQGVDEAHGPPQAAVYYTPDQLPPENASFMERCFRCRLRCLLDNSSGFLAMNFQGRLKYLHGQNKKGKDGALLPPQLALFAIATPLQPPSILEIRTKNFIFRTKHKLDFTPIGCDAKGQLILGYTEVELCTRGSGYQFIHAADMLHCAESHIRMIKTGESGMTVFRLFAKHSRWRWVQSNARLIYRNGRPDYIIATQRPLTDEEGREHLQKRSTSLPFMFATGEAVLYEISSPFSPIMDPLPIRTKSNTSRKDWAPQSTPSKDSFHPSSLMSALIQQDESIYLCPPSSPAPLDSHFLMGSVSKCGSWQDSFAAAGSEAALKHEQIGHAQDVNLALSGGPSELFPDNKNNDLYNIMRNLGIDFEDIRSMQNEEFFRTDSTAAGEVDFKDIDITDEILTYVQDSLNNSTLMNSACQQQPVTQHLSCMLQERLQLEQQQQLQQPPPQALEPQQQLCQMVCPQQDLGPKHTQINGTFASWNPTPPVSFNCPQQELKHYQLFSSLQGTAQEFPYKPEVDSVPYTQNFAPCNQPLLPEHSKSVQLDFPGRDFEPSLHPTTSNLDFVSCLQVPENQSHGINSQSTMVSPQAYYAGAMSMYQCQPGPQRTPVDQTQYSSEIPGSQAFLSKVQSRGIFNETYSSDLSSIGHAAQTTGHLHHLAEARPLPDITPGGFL
T1 sequence (P53762 2-791 partner): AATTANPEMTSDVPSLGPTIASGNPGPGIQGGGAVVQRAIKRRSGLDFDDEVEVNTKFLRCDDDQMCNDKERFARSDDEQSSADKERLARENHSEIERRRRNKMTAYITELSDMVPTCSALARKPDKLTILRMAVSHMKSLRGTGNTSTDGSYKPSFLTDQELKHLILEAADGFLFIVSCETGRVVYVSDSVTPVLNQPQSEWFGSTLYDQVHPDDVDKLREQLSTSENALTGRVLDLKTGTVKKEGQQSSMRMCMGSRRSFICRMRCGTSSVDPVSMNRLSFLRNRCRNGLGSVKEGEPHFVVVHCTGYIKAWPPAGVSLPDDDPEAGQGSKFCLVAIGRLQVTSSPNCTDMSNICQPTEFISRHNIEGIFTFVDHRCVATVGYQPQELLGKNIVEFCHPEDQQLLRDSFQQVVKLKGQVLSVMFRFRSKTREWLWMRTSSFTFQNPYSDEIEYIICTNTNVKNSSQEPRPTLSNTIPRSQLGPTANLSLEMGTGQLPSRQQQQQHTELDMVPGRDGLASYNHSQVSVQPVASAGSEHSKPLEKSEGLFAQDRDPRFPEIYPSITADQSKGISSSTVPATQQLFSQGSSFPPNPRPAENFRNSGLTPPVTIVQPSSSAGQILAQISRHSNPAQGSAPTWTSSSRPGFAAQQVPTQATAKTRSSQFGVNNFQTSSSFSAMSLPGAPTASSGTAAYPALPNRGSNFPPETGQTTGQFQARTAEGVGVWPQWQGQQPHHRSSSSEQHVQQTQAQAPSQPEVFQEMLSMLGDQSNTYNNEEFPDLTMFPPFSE

For the molecule `CCS(=O)(=O)c1ccc2oc(-c3ccc4ccccc4c3)nc2c1` [compound 1, ezutromid], the Kd is 50.1 ± 22.1 nM.

(Values after publication PMC7003794, “Chemical Proteomics and Phenotypic Profiling Identifies the Aryl Hydrocarbon Receptor as a Molecular Target of the Utrophin Modulator Ezutromid” (Angewandte Chemie (International Ed. in English), 2020).)
